ChEMBL document CHEMBL3259787, “Discovery of two aminoglycoside antibiotics as inhibitors targeting the menin-mixed lineage leukaemia interface” (Bioorg Med Chem Lett, 2014)
Activity calls are given as the source filed them. No cut-off for these calls is given here.

Key:
[1] = Inhibition of N-terminal FITC-labeled MBM1 interaction to menin (unknown origin) after 1 hr by fluorescence polarization assay; set-up: species or system Homo sapiens
Menin (Homo sapiens) [2] = target: T1, Menin (Homo sapiens) (UniProt O00255); assay: Binding affinity to menin (unknown origin) assessed as thermal stability at 50 uM by differential scanning fluorimetry (reference value: 40.46 degC)
T1 sequence (whole entry): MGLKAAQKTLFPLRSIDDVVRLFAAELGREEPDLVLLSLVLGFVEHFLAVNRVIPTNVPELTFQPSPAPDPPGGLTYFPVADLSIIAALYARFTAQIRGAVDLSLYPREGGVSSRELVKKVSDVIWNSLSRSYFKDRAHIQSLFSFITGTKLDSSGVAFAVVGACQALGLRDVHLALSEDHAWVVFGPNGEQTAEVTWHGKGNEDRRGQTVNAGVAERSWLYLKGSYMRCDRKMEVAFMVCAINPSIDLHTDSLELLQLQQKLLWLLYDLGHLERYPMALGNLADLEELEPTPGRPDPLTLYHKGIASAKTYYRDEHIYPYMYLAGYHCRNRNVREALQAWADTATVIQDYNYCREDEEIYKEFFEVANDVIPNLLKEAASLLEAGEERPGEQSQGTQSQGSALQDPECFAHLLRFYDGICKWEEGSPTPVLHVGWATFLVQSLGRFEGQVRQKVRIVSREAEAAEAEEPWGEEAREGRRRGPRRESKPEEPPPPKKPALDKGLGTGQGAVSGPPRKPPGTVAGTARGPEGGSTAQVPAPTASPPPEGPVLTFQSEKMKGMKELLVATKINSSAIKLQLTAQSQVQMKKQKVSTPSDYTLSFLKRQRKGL

Menin (Homo sapiens) [3] = target: T1, Menin (Homo sapiens); assay: Binding affinity to menin (unknown origin) assessed as thermal stability at 200 uM by differential scanning fluorimetry (reference value: 40.46 degC)
Menin (Homo sapiens) [4] = target: T1, Menin (Homo sapiens); assay: Binding affinity to menin (unknown origin) assessed as thermal stability at 400 uM by differential scanning fluorimetry (reference value: 40.46 degC)
Menin = target: T2, Menin (Homo sapiens, UniProt O00255); assay: (§1) Binding affinity to menin (unknown origin) by isothermal titration calorimetry analysis
T2 sequence (O00255 whole entry): T1 sequence (whole entry)

Menin (Homo sapiens) [5] = target: T1, Menin (Homo sapiens); assay: as §1

| SMILES | Ki [1] [µM] | Tm (Menin (Homo sapiens) [2]) [°C] | Tm (Menin (Homo sapiens) [3]) [°C] | Tm (Menin (Homo sapiens) [4]) [°C] | Kd (Menin) [µM] | Activity (Menin (Homo sapiens) [5]) |
| --- | --- | --- | --- | --- | --- | --- |
| NC[C@@H]1O[C@H](O[C@H]2[C@@H](O)[C@H](O[C@@H]3[C@@H](O)[C@H](N)C[C@H](N)[C@H]3O[C@H]3O[C@H](CN)[C@@H](O)[C@H](O)[C@H]3N)O[C@@H]2CO)[C@H](N)[C@@H](O)[C@@H]1O [FRAMYCETIN] | 18.8 | 42.5 | 43.8 | 45.2 | 15.6 | – |
| NC[C@H]1O[C@H](O[C@H]2[C@H](O)[C@@H](O[C@H]3O[C@H](CO)[C@@H](O)[C@H](N)[C@H]3O)[C@H](N)C[C@@H]2N)[C@H](N)C[C@@H]1O [TOBRAMYCIN] | 59.9 | 41.4 | 42.6 | 43.4 | – | inactive |
